# Molecular target: rNOX (NADH oxidase, NOX) (Mesomycoplasma hyopneumoniae, UniProt E4QS87)
# Assay: NADH oxidation, absorbance at […] nm
# Assay type: biochemical
# Details: 0.5 mM NADH; 10 uM FAD added; 0.1 M potassium phosphate pH 7.5, 1 mM dithiothreitol; 25 °C; 5 ug/mL enzyme
# Chain of rNOX (NADH oxidase, NOX) (E4QS87 entry or part of it): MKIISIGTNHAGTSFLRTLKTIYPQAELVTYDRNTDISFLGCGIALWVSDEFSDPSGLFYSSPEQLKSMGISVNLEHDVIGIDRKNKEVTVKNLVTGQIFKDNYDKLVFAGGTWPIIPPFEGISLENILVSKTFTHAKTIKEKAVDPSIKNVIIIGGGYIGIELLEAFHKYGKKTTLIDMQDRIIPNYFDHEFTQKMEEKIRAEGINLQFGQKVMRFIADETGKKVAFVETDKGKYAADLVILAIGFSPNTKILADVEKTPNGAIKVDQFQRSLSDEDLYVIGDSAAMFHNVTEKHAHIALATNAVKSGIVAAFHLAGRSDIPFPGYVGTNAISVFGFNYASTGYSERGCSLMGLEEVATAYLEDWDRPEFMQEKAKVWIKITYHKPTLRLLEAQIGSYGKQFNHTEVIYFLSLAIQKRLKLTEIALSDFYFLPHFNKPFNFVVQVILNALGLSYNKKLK
smiles,measurement,value
NC(=O)C1=CN([C@@H]2O[C@H](COP(=O)(O)OP(=O)(O)OC[C@H]3O[C@@H](n4cnc5c(N)ncnc54)[C@H](O)[C@@H]3O)[C@@H](O)[C@H]2O)C=CC1 [NADH],"NADH oxidation, absorbance at 340 nm",enzymatic activity of purified rNOX was determined by measuring the oxidation of NADH to NAD^+

# Reference: paper PMC8976378, “NADH oxidase of Mycoplasma hyopneumoniae functions as a potential mediator of virulence” (BMC Veterinary Research, 2022)
